Results taken from ChEMBL document CHEMBL5291721, “A preclinical secondary pharmacology resource illuminates target-adverse drug reaction associations of marketed drugs” (Nat Commun, 2023).

Tests used:
B2 bradykinin receptor = biological target: T1, B2 bradykinin receptor (Homo sapiens, UniProt P30411)
T1 sequence (P30411 whole entry): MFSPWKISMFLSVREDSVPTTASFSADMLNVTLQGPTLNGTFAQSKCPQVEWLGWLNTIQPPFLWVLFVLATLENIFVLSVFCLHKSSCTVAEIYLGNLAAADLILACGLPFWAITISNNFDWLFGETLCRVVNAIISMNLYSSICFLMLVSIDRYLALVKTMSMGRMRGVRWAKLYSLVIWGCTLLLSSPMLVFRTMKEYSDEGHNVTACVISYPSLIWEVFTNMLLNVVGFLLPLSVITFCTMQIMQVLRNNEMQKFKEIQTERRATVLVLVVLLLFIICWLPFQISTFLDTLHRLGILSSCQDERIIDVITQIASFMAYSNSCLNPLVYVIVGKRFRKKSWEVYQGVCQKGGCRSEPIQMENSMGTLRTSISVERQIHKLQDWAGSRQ

[1] = biological target: T2, Prostaglandin G/H synthase 1 (Rattus norvegicus, UniProt Q63921); type: functional
T2 sequence (Q63921 whole entry): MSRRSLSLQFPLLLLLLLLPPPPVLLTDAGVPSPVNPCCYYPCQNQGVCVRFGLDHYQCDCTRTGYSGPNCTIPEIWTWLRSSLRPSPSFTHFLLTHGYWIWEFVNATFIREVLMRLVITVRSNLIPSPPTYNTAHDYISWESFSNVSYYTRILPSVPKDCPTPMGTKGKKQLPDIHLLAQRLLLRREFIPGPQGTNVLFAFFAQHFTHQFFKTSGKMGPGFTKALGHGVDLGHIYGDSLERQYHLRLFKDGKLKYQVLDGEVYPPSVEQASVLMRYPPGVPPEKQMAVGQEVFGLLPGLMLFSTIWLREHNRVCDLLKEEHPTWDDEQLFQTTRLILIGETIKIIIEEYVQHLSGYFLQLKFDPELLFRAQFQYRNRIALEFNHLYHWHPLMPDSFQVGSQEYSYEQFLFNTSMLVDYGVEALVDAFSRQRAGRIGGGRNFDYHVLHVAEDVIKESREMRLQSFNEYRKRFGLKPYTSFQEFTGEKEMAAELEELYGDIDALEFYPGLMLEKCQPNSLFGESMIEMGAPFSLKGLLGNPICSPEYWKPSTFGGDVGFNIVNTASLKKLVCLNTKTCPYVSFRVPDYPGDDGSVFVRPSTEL

[2] = biological target: Growth hormone secretagogue receptor type 1 (Homo sapiens, UniProt Q92847)
Adenosine receptor A3 = biological target: T3, Adenosine receptor A3 (Homo sapiens, UniProt P0DMS8)
T3 sequence (P0DMS8 whole entry): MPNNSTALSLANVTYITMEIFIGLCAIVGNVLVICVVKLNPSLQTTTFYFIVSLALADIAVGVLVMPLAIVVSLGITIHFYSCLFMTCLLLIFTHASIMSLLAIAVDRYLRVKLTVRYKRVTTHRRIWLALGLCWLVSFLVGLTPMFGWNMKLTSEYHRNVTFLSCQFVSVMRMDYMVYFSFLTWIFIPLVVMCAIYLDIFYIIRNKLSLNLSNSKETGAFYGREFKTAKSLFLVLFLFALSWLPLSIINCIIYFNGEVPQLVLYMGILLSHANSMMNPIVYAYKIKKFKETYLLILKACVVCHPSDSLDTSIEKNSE

Adenosine receptor A1 = biological target: T4, Adenosine receptor A1 (Homo sapiens, UniProt P30542)
T4 sequence (P30542 whole entry): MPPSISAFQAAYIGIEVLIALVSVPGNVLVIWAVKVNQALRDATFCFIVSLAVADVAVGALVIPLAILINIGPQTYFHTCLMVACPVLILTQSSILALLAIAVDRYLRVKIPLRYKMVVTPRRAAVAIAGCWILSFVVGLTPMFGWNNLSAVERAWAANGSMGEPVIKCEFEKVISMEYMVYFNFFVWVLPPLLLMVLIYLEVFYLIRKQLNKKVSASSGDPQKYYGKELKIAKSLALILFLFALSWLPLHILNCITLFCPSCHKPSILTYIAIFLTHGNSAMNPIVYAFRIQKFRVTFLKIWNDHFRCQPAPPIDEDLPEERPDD

Melanocortin receptor 4 = Melanocortin receptor 4 (Homo sapiens, UniProt P32245)
[3] = biological target: T5, 5-hydroxytryptamine receptor 1A (Homo sapiens, UniProt P08908); type: functional, cell-based
T5 sequence (P08908 whole entry): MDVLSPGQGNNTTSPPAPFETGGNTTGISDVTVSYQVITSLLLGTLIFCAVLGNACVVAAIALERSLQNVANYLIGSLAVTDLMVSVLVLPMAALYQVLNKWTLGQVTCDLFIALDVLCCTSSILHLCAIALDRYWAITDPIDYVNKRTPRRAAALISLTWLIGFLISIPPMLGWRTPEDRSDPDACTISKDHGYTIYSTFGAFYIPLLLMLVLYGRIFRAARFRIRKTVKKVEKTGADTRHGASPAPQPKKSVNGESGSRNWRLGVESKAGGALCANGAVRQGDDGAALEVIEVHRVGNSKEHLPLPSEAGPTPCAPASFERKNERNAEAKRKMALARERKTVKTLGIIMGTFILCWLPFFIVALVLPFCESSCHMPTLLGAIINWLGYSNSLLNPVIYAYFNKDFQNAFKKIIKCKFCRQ

[4] = biological target: T6, Alpha-2A adrenergic receptor (Homo sapiens, UniProt P08913); type: functional, cell-based
T6 sequence (P08913 whole entry): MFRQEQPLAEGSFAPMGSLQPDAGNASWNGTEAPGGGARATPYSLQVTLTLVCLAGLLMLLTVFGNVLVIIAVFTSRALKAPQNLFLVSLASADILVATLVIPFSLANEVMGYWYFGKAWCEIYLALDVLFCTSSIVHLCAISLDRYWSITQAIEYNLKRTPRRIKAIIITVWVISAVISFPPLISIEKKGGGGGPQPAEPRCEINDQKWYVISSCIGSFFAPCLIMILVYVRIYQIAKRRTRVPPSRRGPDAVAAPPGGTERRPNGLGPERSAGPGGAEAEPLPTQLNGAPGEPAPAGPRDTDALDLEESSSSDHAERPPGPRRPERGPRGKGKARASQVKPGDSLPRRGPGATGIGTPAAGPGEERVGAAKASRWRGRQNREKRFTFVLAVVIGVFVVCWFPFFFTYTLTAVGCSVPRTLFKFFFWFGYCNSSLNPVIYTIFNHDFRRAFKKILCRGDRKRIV

[5] = biological target: cGMP-inhibited 3',5'-cyclic phosphodiesterase 3A (Homo sapiens, UniProt Q14432); type: functional
Cannabinoid receptor 1 = Cannabinoid receptor 1 (Homo sapiens, UniProt P21554)
Histamine H2 receptor = Histamine H2 receptor (Homo sapiens, UniProt P25021); type: functional, cell-based
[6] = biological target: Beta-2 adrenergic receptor (Homo sapiens, UniProt P07550); type: functional, cell-based
Also: assay procedure not described here.

cGMP-inhibited 3',5'-cyclic phosphodiesterase 3A, sequence (Q14432 whole entry): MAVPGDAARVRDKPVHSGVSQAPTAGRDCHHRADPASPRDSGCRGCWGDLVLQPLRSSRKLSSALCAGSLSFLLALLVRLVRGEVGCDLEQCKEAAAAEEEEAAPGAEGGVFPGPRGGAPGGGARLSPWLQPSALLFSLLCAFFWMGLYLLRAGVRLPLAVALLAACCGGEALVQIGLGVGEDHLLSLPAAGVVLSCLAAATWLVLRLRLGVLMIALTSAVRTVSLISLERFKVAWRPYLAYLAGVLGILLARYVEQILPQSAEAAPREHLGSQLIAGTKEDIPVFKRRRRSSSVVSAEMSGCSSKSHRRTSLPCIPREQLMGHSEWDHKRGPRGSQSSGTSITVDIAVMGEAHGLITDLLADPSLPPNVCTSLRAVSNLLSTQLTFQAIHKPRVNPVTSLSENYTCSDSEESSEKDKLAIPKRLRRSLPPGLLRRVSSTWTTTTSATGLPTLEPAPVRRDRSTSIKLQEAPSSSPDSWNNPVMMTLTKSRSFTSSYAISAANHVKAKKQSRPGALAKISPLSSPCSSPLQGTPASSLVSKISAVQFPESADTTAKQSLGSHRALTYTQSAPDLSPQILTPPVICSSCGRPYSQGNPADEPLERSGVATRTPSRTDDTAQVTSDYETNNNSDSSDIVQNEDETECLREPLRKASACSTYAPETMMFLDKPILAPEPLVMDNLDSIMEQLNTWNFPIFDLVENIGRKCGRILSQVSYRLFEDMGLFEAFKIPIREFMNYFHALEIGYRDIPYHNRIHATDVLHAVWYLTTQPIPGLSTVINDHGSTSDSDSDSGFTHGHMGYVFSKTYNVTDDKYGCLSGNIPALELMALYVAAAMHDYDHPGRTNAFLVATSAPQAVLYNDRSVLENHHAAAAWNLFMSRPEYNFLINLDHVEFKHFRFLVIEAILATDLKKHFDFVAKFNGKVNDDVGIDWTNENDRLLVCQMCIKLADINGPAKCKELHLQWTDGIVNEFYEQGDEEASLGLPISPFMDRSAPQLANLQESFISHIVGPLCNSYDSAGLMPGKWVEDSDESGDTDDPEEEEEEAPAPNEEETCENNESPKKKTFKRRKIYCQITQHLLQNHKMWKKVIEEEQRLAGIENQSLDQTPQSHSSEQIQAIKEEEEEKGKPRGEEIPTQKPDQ
Histamine H2 receptor, sequence (P25021 whole entry): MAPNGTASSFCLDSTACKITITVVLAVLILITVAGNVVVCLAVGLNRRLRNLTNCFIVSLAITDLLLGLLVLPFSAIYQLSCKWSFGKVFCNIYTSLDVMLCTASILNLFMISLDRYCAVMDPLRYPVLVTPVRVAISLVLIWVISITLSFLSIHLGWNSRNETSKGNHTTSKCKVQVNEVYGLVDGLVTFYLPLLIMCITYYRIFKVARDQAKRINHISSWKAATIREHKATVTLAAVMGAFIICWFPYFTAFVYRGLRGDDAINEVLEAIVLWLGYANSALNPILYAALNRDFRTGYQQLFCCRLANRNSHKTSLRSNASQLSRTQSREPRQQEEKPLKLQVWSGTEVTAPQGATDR
Beta-2 adrenergic receptor, sequence (P07550 whole entry): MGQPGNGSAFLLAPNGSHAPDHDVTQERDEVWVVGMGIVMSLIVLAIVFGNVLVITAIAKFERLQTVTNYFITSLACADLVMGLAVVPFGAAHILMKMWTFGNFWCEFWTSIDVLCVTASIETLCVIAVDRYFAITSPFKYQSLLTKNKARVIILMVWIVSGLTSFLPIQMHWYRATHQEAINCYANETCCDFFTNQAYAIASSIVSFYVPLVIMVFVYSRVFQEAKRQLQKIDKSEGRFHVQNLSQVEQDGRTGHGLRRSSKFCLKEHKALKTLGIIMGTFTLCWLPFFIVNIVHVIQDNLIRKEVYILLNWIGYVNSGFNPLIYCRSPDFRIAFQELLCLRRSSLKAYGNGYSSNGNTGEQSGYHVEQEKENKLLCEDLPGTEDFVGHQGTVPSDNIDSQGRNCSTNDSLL
Cannabinoid receptor 1, sequence (P21554 whole entry): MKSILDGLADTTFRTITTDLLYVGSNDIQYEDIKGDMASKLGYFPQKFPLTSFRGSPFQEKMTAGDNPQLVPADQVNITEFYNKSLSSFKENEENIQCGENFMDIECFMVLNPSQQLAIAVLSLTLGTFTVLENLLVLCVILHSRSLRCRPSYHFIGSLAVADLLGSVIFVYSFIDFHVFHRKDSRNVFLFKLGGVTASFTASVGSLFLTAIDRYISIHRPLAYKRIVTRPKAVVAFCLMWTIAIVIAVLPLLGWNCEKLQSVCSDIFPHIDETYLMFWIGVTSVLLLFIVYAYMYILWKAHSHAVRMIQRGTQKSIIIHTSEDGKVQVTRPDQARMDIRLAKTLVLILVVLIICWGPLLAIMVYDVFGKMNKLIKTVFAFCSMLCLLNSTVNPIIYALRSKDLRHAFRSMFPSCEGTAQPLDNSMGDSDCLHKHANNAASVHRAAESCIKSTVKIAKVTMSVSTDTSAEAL
Melanocortin receptor 4, sequence (P32245 whole entry): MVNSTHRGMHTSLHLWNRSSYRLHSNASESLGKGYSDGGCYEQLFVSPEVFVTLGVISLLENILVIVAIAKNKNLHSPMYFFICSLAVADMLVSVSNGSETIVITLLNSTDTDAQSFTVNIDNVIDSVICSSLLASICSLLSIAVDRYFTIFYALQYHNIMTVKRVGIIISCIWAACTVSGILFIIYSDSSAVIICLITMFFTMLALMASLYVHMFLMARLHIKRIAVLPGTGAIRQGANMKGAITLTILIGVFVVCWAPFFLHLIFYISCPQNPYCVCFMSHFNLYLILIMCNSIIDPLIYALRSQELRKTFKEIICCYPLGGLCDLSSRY
Growth hormone secretagogue receptor type 1, sequence (Q92847 whole entry): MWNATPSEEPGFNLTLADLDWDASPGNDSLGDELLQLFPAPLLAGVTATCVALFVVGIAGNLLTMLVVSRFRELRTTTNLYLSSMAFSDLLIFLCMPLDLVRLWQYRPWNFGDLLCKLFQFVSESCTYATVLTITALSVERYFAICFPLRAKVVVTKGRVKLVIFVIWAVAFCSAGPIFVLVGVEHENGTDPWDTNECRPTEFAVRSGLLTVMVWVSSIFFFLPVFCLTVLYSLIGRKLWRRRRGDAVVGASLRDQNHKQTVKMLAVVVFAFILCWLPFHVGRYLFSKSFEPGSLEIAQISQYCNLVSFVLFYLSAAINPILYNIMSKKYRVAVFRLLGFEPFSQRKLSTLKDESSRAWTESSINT

Compound | AC50 (B2 bradykinin receptor) [µM] | AC50 [1] [µM] | AC50 [2] [µM] | AC50 (Adenosine receptor A3) [µM] | AC50 (Adenosine receptor A1) [µM] | AC50 (Melanocortin receptor 4) [µM] | AC50 [3] [µM] | AC50 [4] [µM] | AC50 [5] [µM] | AC50 (Cannabinoid receptor 1) [µM] | AC50 (Histamine H2 receptor) [µM] | AC50 [6] [µM]
Cc1cc(-c2ccccc2)nnc1NCCN1CCOCC1 [MINAPRINE] | > 30 | > 30 | > 30 | > 30 | > 30 | > 30 | > 10 | > 10 | > 30 | 9.5 | > 10 | > 30
NC(=O)C[S+]([O-])C(c1ccccc1)c1ccccc1 (stereo not given) [MODAFINIL] | > 30 | > 30 | > 30 | 13.4 | > 30 | 24.1 | > 10 | > 10 | > 30 | > 10 | > 10 | > 30
CC(Cc1ccccc1)NCCC(c1ccccc1)c1ccccc1 (stereo not given) [PRENYLAMINE] | > 30 | > 30 | 3 | 15.6 | > 30 | 6.4 | > 30 | > 10 | > 30 | 7.95 | > 30 | > 30
CCN(CC)CCOC(=O)c1ccc(N)cc1 [PROCAINE] | > 30 | > 30 | > 30 | > 30 | > 30 | > 30 | > 30 | > 10 | > 10 | > 10 | > 10 | > 30
Cc1c(Cl)cccc1Nc1ccccc1C(=O)O [TOLFENAMIC ACID] | > 30 | 0.6 | > 30 | 12 | > 30 | – | > 30 | 20 | > 30 | – | > 30 | > 30
COc1ccc(C(=O)N2CCN(c3ccc4c(c3)CCC(=O)N4)CC2)cc1OC [VESNARINONE] | > 30 | > 30 | > 30 | > 30 | > 30 | – | > 30 | > 30 | 8.46 | – | > 30 | > 30
Cc1ccc(-c2nc3ccc(C)cn3c2CC(=O)N(C)C)cc1 [ZOLPIDEM] | > 30 | > 30 | > 30 | > 30 | > 30 | > 30 | > 30 | > 30 | > 30 | > 30 | > 10 | > 30
